Measurements: US11325907B2, “Crystal form of 1H-imidazo[4,5-b]pyridine-2(3H)-one compound and preparation process therefor” (MEDSHINE DISCOVERY INC., priority 2018, dated 2022)

Columns and labels:
Type in all cases: physicochemical
[1] = Solid stability test at high temperature, high humidity and strong light
Protocol: (§1) Content Determination Method
(§2) Device: Agilent 1260 High Performance Liquid Chromatograph with DAD detector or Shimadzu LC-20A High Performance Liquid Chromatograph with PDA detector
(§3) Detailed Chromatographic parameters are as follows:
(§4) Chromatographic column: Agilent Eclipse plus C18 (4.6 mm×150 mm, 3.5 μm)
(§5) Column temperature: 40° C.
(§6) Detecting wavelength: 230 nm
(§7) Mobile Phase A: 0.04% trifluoroacetic acid aqueous solution (V/V)
(§8) Mobile Phase B: acetonitrile
(§9) Diluent: acetonitrile: purified water=3:1 (v/v)
(§10) Probe Wash: acetonitrile: purified water=3:1 (v/v)
(§11) Gradient elution procedure: […]
The samples placed under high temperature and high humidity conditions were placed in a desiccator for inspection, and the samples were taken on the 5th, 10th and 30th days for testing, and the test results were compared with the initial test results of day 0. The samples placed under strong light were covered with a transparent lid with a sealing film, and the samples were taken on the 5th and 10th days for testing, and the test results were compared with the initial test results on day 0.

[2] = Solid stability test under accelerated conditions (40° C./Relative Humidity 75%, sealed)
Protocol: as §1, §2, §3, §4, §5, §6, §7, §8, §9, §10, §11
(§12) Each layer of the low-density polyethylene bag was buckled and sealed respectively and then the bag was placed in an aluminum foil bag and heat-sealed. The samples were taken on the 1st, 2nd, 3rd and 6th months for testing, and the test results were compared with the initial test results of day 0.

[3] = Solid stability test under long-term conditions (25° C./Relative Humidity 60%, sealed)
Protocol: as §1, §2, §3, §4, §5, §6, §7, §8, §9, §10, §11
as §12, with “3rd, 6th, 9th, 12th” for “1st, 2nd, 3rd”, “18th” for “6th”, “testing” for “testing,”

[4] = High humidity (Room Temperature/Relative Humidity 92.5%, Open), Day 5
[5] = High humidity (Room Temperature/Relative Humidity 92.5%, Open), Day 10
[6] = High humidity (Room Temperature/Relative Humidity 92.5%, Open), Day 30
[7] = High temperature (60° C., Open), Day 5
[8] = High temperature (60° C., Open), Day 10
[9] = High temperature (60° C., Open), Day 30
[10] = Strong light (4500 ± 500 lux, 90 μw/cm^2, Sealed), Day 5
[11] = Strong light (4500 ± 500 lux, 90 μw/cm^2, Sealed), Day 10
[12] = Batch 1, 40° C./Relative Humidity 75%, Sealed, 1st month
[13] = Batch 1, 40° C./Relative Humidity 75%, Sealed, 2nd month
[14] = Batch 1, 40° C./Relative Humidity 75%, Sealed, 3rd month
[15] = Batch 1, 40° C./Relative Humidity 75%, Sealed, 6th month
[16] = Batch 2, 40° C./Relative Humidity 75%, Sealed, 1st month
[17] = Batch 2, 40° C./Relative Humidity 75%, Sealed, 2nd month
[18] = Batch 2, 40° C./Relative Humidity 75%, Sealed, 3rd month
[19] = Batch 2, 40° C./Relative Humidity 75%, Sealed, 6th month
[20] = Batch 3, 40° C./Relative Humidity 75%, Sealed, 1st month
[21] = Batch 3, 40° C./Relative Humidity 75%, Sealed, 2nd month
[22] = Batch 3, 40° C./Relative Humidity 75%, Sealed, 3rd month
[23] = Batch 3, 40° C./Relative Humidity 75%, Sealed, 6th month
[24] = Batch 1, 25° C./Relative Humidity 60%, Sealed, 3rd month
[25] = Batch 1, 25° C./Relative Humidity 60%, Sealed, 6th month
[26] = Batch 1, 25° C./Relative Humidity 60%, Sealed, 9th month
[27] = Batch 1, 25° C./Relative Humidity 60%, Sealed, 12th month
[28] = Batch 1, 25° C./Relative Humidity 60%, Sealed, 18th month
[29] = Batch 2, 25° C./Relative Humidity 60%, Sealed, 3rd month
[30] = Batch 2, 25° C./Relative Humidity 60%, Sealed, 6th month
[31] = Batch 2, 25° C./Relative Humidity 60%, Sealed, 9th month
[32] = Batch 2, 25° C./Relative Humidity 60%, Sealed, 12th month
[33] = Batch 2, 25° C./Relative Humidity 60%, Sealed, 18th month
[34] = Batch 3, 25° C./Relative Humidity 60%, Sealed, 3rd month
[35] = Batch 3, 25° C./Relative Humidity 60%, Sealed, 6th month
[36] = Batch 3, 25° C./Relative Humidity 60%, Sealed, 9th month
[37] = Batch 3, 25° C./Relative Humidity 60%, Sealed, 12th month
[38] = Batch 3, 25° C./Relative Humidity 60%, Sealed, 18th month

- Appearance ([1]; Day 0 (initial)): White
- Content ([1]; Day 0 (initial)): 99.5%
- Total Impurity ([1]; Day 0 (initial)): 0.11%
- Appearance [1, 4]: White
- Content [1, 4]: 99.0%
- Total Impurity [1, 4]: 0.16%
- Appearance [1, 5]: White
- Content [1, 5]: 98.9%
- Total Impurity [1, 5]: 0.16%
- Appearance [1, 6]: White
- Content [1, 6]: 99.0%
- Total Impurity [1, 6]: 0.16%
- Appearance [1, 7]: White
- Content [1, 7]: 99.2%
- Total Impurity [1, 7]: 0.16%
- Appearance [1, 8]: White
- Content [1, 8]: 98.8%
- Total Impurity [1, 8]: 0.16%
- Appearance [1, 9]: White
- Content [1, 9]: 99.0%
- Total Impurity [1, 9]: 0.16%
- Appearance [1, 10]: White
- Content [1, 10]: 98.8%
- Total Impurity [1, 10]: 0.11%
- Appearance [1, 11]: White
- Content [1, 11]: 98.6%
- Total Impurity [1, 11]: 0.11%
- Solid stability (conclusion) ([1]; high temperature, high humidity or strong light conditions): good stability
- Appearance [2, 12]: White powder
- Content [2, 12]: 99.3%
- Total Impurity [2, 12]: 0.09%
- Appearance [2, 13]: White powder
- Content [2, 13]: 99.1%
- Total Impurity [2, 13]: 0.09%
- Appearance [2, 14]: White powder
- Content [2, 14]: 99.5%
- Total Impurity [2, 14]: 0.09%
- Content [2, 15]: 100.1%
- Total Impurity [2, 15]: 0.10%
- Appearance ([2]; Batch 1, Day 0): White powder
- Content ([2]; Batch 1, Day 0): 99.4%
- Crystal Form (XRPD) ([2]; Batch 1, Day 0): Crystal Form A
- Total Impurity ([2]; Batch 1, Day 0): 0.09%
- Appearance [2, 16]: White powder
- Content [2, 16]: 99.1%
- Total Impurity [2, 16]: 0.11%
- Appearance [2, 17]: White powder
- Content [2, 17]: 99.0%
- Total Impurity [2, 17]: 0.11%
- Appearance [2, 18]: White powder
- Content [2, 18]: 99.2%
- Total Impurity [2, 18]: 0.10%
- Appearance [2, 19]: White powder
- Content [2, 19]: 100.5%
- Crystal Form (XRPD) [2, 19]: Crystal Form A
- Total Impurity [2, 19]: 0.12%
- Appearance ([2]; Batch 2, Day 0): White powder
- Content ([2]; Batch 2, Day 0): 99.4%
- Crystal Form (XRPD) ([2]; Batch 2, Day 0): Crystal Form A
- Total Impurity ([2]; Batch 2, Day 0): 0.10%
- Appearance [2, 20]: White powder
- Content [2, 20]: 98.8%
- Total Impurity [2, 20]: 0.16%
- Appearance [2, 21]: White powder
- Content [2, 21]: 98.9%
- Total Impurity [2, 21]: 0.16%
- Appearance [2, 22]: White powder
- Content [2, 22]: 99.2%
- Total Impurity [2, 22]: 0.16%
- Content [2, 23]: 100.0%
- Total Impurity [2, 23]: 0.11%
- Appearance ([2]; Batch 3, Day 0): White powder
- Content ([2]; Batch 3, Day 0): 99.5%
- Crystal Form (XRPD) ([2]; Batch 3, Day 0): Crystal Form A
- Total Impurity ([2]; Batch 3, Day 0): 0.11%
- Solid stability (conclusion) ([2]; accelerated conditions of 40° C./Relative Humidity 75%): good stability
- Appearance [3, 24]: White powder
- Content [3, 24]: 99.0%
- Total Impurity [3, 24]: 0.09%
- Appearance [3, 25]: White powder
- Content [3, 25]: 101.4%
- Crystal Form (XRPD) [3, 25]: Crystal Form A
- Total Impurity [3, 25]: 0.09%
- Appearance [3, 26]: White powder
- Content [3, 26]: 99.6%
- Total Impurity [3, 26]: 0.09%
- Appearance [3, 27]: White powder
- Content [3, 27]: 98.8%
- Crystal Form (XRPD) [3, 27]: Crystal Form A
- Total Impurity [3, 27]: 0.08%
- Appearance [3, 28]: White powder
- Content [3, 28]: 97.3%
- Total Impurity [3, 28]: 0.10%
- Appearance ([3]; Batch 1, Day 0): White powder
- Content ([3]; Batch 1, Day 0): 99.4%
- Crystal Form (XRPD) ([3]; Batch 1, Day 0): Crystal Form A
- Total Impurity ([3]; Batch 1, Day 0): 0.09%
- Appearance [3, 29]: White powder
- Content [3, 29]: 100.5%
- Total Impurity [3, 29]: 0.11%
- Appearance [3, 30]: White powder
- Content [3, 30]: 100.1%
- Crystal Form (XRPD) [3, 30]: Crystal Form A
- Total Impurity [3, 30]: 0.12%
- Appearance [3, 31]: White powder
- Content [3, 31]: 99.6%
- Total Impurity [3, 31]: 0.11%
- Appearance [3, 32]: White powder
- Content [3, 32]: 98.2%
- Crystal Form (XRPD) [3, 32]: Crystal Form A
- Total Impurity [3, 32]: 0.09%
- Appearance [3, 33]: White powder
- Content [3, 33]: 99.1%
- Total Impurity [3, 33]: 0.11%
- Appearance ([3]; Batch 2, Day 0): White powder
- Content ([3]; Batch 2, Day 0): 99.4%
- Crystal Form (XRPD) ([3]; Batch 2, Day 0): Crystal Form A
- Total Impurity ([3]; Batch 2, Day 0): 0.10%
- Appearance [3, 34]: White powder
- Content [3, 34]: 98.9%
- Total Impurity [3, 34]: 0.16%
- Appearance [3, 35]: White powder
- Content [3, 35]: 98.5%
- Crystal Form (XRPD) [3, 35]: Crystal Form A
- Total Impurity [3, 35]: 0.12%
- Appearance [3, 36]: White powder
- Content [3, 36]: 99.2%
- Total Impurity [3, 36]: 0.11%
- Appearance [3, 37]: White powder
- Content [3, 37]: 98.4%
- Crystal Form (XRPD) [3, 37]: Crystal Form A
- Total Impurity [3, 37]: 0.10%
- Appearance [3, 38]: White powder
- Content [3, 38]: 99.7%
- Total Impurity [3, 38]: 0.17%
- Appearance ([3]; Batch 3, Day 0): White powder
- Content ([3]; Batch 3, Day 0): 99.5%
- Crystal Form (XRPD) ([3]; Batch 3, Day 0): Crystal Form A
- Total Impurity ([3]; Batch 3, Day 0): 0.11%
- Solid stability (conclusion) ([3]; long-term conditions of 25° C./Relative Humidity 60%): good stability
Structure (SMILES): CCOc1cc([C@@H](CS(C)(=O)=O)n2c(=O)[nH]c3c(C)c(-c4ccccc4F)cnc32)ccc1OC [Crystal Form A of Compound 1]
